The IC50 is the concentration at which inhibition is half-maximal. A higher IC50 goes with weaker potency.

The subject of experiment [1] is Jurkat IL-2. As to the kind of experiment: Jurkat IL-2 assay (IL-2 inhibition by ELISA after anti-CD3/28/2 stimulation). As to conditions: Homo sapiens; Jurkat clone E6.1, IL-2 in supernatant, 30 min pre-incubation, anti-CD3/28/2 stimulation 24 hours; mean if tested more than once. It is filed as cell-based. How it is done:
Inhibition was determined in a cell-based assay using Jurkat (ATCC, clone E6.1), an immortalized T-cell line, exposed to a dose response of compound and assessed for viability, and IL-2 inhibition by ELISA. Cells were cultured in RPMI/10% FBS (Invitrogen 11875093, Atlanta Biologicals S12450H), maintained below 3E6/mL and only used in assays while below passage 25. Compounds were stamped by ECHO onto 384w plates (PerkinElmer Culturplate, 6007680). The cells were plated in fresh media on top of compound and incubated for 30 minutes before stimulation with soluble anti-CD3/28/2 (Stemcell, 10970) for 24 hours. Supernatant was collected and assessed for IL-2 (MSD, 384w, L21SA-1). To assess viability of cells treated with compound, cells were lysed with CTG reagent (Promega, G7570), and measured by luminometer. […] IC50s calculated using 4-parameter fit in GraphPad Prism.
“N/A” indicates not tested. For a compound that was tested in more than one experiment, the result shown represents the mean value.
Background: ELISA stands for enzyme-linked immunosorbent assay.

The target of experiment [2] is T1, full length MALT1 (Homo sapiens, UniProt Q9UDY8).
T1 construct: measuring enzymatic activity of full length MALT1 at varying concentrations of compound
T1 sequence (Q9UDY8 1-824): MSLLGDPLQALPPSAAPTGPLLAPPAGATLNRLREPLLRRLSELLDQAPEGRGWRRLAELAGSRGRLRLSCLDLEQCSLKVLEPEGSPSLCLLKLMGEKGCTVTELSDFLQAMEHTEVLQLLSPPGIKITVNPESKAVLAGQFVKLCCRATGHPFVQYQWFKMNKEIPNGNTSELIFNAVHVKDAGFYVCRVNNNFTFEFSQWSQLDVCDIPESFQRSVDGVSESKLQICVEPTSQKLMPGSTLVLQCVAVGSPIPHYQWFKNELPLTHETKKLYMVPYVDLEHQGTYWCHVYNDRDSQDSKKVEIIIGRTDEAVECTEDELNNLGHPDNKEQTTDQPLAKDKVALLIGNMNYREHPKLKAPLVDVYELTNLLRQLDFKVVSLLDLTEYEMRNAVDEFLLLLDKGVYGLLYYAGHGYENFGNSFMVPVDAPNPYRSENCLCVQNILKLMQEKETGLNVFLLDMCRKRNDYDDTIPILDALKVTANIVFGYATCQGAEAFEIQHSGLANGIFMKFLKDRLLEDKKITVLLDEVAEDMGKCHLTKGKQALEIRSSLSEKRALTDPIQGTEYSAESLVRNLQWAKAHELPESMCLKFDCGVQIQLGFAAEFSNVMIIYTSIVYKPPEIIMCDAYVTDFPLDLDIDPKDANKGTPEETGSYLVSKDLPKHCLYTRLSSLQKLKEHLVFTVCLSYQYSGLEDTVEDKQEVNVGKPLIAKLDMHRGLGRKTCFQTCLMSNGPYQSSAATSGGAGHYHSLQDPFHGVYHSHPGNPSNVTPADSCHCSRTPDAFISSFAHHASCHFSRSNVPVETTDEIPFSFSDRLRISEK
As to the kind of experiment: MALT1 biochemical assay (fluorogenic peptide substrate cleavage). As to conditions: full length MALT1, 15 nM enzyme, 30 μM peptide substrate, 30 min pre-incubation, 60 min reaction; mean if tested more than once. How it is done:
Inhibitor potency was evaluated by measuring enzymatic activity of full length MALT1 at varying concentrations of compound. The enzymatic assay consists of a single substrate reaction that monitors the release of a fluorescent dye upon cleavage of the peptide substrate. […] The assay buffer consists of 50 mM Hepes, pH 7.5, 0.8 M sodium citrate, 1 mM DTT, 0.004% tween-20, and 0.005% bovine serum albumin (BSA). […] The reaction was quenched after 60 minutes with the addition of iodoacetate at a final concentration of 10 mM. Total fluorescence was measured using an Envision (PerkinElmer) with fluorescence excitation at 485 nm and emission at 520 nm.
The reaction was initiated with the addition of 10 μL of peptide substrate. […] IC50 values were calculated by fitting the concentration-response curves to a four-parameter logistic equation in GraphPad Prism.
“N/A” indicates not tested.

For `CN(C(=O)C1CCS(=O)(=O)CC1)[C@@H](c1ccc(Nc2cnn(C)c2C(F)(F)F)cc1)C(F)(F)F` [Compound 1.1, (S)—N-methyl-N-(2,2,2-trifluoro-1-(4-((1-methyl-5-(trifluoromethyl)-1H-pyrazol-4-yl)amino)phenyl)ethyl)tetrahydro-2H-thiopyran-4-carboxamide 1,1-dioxide], the IC50 in experiment [1] and in experiment [2] was > 1000 nM in each case.

`CN(C(=O)C1CCS(=O)(=O)CC1)[C@@H](c1ccc(Nc2cnn(-c3cccc4ncccc34)c2C(F)(F)F)cc1)C(F)(F)F` [Compound 1.2]: the IC50 in experiment [1] and in experiment [2] was 100 to 1000 nM throughout.

On to `Cc1ccccc1-n1ncc(Nc2ccc([C@H](N(C)C(=O)C3CCS(=O)(=O)CC3)C(F)(F)F)cc2)c1C(F)(F)F` [Compound 1.3], for which the IC50 is 100 to 1000 nM in experiment [1] and > 1000 nM in experiment [2].

As for `CN(C(=O)C1CCS(=O)(=O)CC1)[C@@H](c1ccc(Nc2cnn(C)c2-c2ccccc2)cc1)C(F)(F)F` [Compound 1.4], the IC50 in experiment [1] and in experiment [2] was > 1000 nM in each case.

In the case of `CC(C)c1c(Nc2ccc([C@H](N(C)C(=O)C3CCS(=O)(=O)CC3)C(F)(F)F)cc2)cnn1C` [Compound 1.5], the IC50 in experiment [1] and in experiment [2] was > 1000 nM in each case.

Consider `CN(C(=O)C1CCS(=O)(=O)CC1)[C@@H](c1ccc(Nc2cnn(-c3ccccc3)c2C(F)(F)F)cc1)C(F)(F)F` [Compound 1.6], for which the IC50 in experiment [1] and in experiment [2] was 100 to 1000 nM throughout.

For `CN(C(=O)C1CCS(=O)(=O)CC1)[C@@H](c1ccc(Nc2cnn(C3CC3)c2C(F)(F)F)cc1)C(F)(F)F` [Compound 1.7], the IC50 in experiment [1] and in experiment [2] was 100 to 1000 nM throughout.

Consider `CC(C)c1c(Nc2ccc([C@H](N(C)C(=O)C3CCS(=O)(=O)CC3)C(F)(F)F)cc2)cnn1-c1ccccc1` [Compound 1.8], for which the IC50 in experiment [1] and in experiment [2] was 100 to 1000 nM in each case.

Consider `CC(C)n1ncc(Nc2ccc([C@H](N(C)C(=O)C3CCS(=O)(=O)CC3)C(F)(F)F)cc2)c1C(F)(F)F` [Compound 1.9], for which the IC50 in experiment [1] and in experiment [2] was 100 to 1000 nM in each case.

With `CN(C(=O)C1CCS(=O)(=O)CC1)[C@@H](c1ccc(Nc2cnn(CC(C)(C)O)c2C(F)(F)F)cc1)C(F)(F)F` [Compound 1.10], the IC50 in experiment [1] and in experiment [2] was > 1000 nM in each case.

As to `COCC(C)n1ncc(Nc2ccc([C@H](N(C)C(=O)C3CCS(=O)(=O)CC3)C(F)(F)F)cc2)c1C(F)(F)F` (some centres unmarked) [Compound 1.11], the IC50 in experiment [1] and in experiment [2] was > 1000 nM each time.

As to `CN(C(=O)C1CCS(=O)(=O)CC1)[C@@H](c1ccc(Nc2cnn(CC(C)(C)C)c2C(F)(F)F)cc1)C(F)(F)F` [Compound 1.12], the IC50 in experiment [1] and in experiment [2] was > 1000 nM in each case.

Take `CN(C(=O)C1CCS(=O)(=O)CC1)[C@@H](c1ccc(Nc2cnn(-c3cccnc3)c2C(F)(F)F)cc1)C(F)(F)F` [Compound 1.13]: the IC50 in experiment [1] and in experiment [2] was < 100 nM each time.

In the case of `CN(C(=O)C1CCS(=O)(=O)CC1)[C@@H](c1ccc(Nc2cnn(-c3ccncc3)c2C(F)(F)F)cc1)C(F)(F)F` [Compound 1.14], the IC50 in experiment [1] was < 100 nM; in experiment [2] it was 100 to 1000 nM.

On to `CN(C(=O)C1CCS(=O)(=O)CC1)[C@@H](c1ccc(Nc2cnn(-c3ccccn3)c2C(F)(F)F)cc1)C(F)(F)F` [Compound 1.15], for which the IC50 in experiment [1] and in experiment [2] was < 100 nM throughout.

Regarding `CN(C(=O)C1CCS(=O)(=O)CC1)[C@@H](c1ccc(Nc2cnn(-c3ccccc3C#N)c2C(F)(F)F)cc1)C(F)(F)F` [Compound 1.16], the IC50 in experiment [1] and in experiment [2] was 100 to 1000 nM each time.

Turning to `CN(C(=O)C1CCS(=O)(=O)CC1)[C@@H](c1ccc(Nc2cnn(-c3cccc(C#N)c3)c2C(F)(F)F)cc1)C(F)(F)F` [Compound 1.17], the IC50 in experiment [1] and in experiment [2] was < 100 nM each time.

As to `CN(C(=O)C1CCS(=O)(=O)CC1)[C@@H](c1ccc(Nc2cnn(-c3ncccn3)c2C(F)(F)F)cc1)C(F)(F)F` [Compound 1.18], the IC50 in experiment [1] and in experiment [2] was > 1000 nM in each case.

With `CN(C(=O)C1CCS(=O)(=O)CC1)[C@@H](c1ccc(Nc2cnn(-c3cnccn3)c2C(F)(F)F)cc1)C(F)(F)F` [Compound 1.19], the IC50 in experiment [1] is < 100 nM; in experiment [2] it was 100 to 1000 nM.

Take `CN(C(=O)C1CCS(=O)(=O)CC1)[C@@H](c1ccc(Nc2cnn(-c3ccncn3)c2C(F)(F)F)cc1)C(F)(F)F` [Compound 1.20]: the IC50 in experiment [1] and in experiment [2] was < 100 nM each time.

Regarding `CN(C(=O)C1CCS(=O)(=O)CC1)[C@@H](c1ccc(Nc2cnn(-c3cccnn3)c2C(F)(F)F)cc1)C(F)(F)F` [Compound 1.21], the IC50 in experiment [1] and in experiment [2] was < 100 nM in each case.

With `CN(C(=O)C1CCS(=O)(=O)CC1)[C@@H](c1ccc(Nc2cnn(-c3ccnnc3)c2C(F)(F)F)cc1)C(F)(F)F` [Compound 1.22], the IC50 was 100 to 1000 nM in experiment [1] and < 100 nM in experiment [2].

As to `COC(C)c1c(Nc2ccc([C@H](N(C)C(=O)C3CCS(=O)(=O)CC3)C(F)(F)F)cc2)cnn1-c1cccnc1` (some centres unmarked) [Compound 1.23], the IC50 in experiment [1] and in experiment [2] was 100 to 1000 nM throughout.

In the case of `CC(O)c1c(Nc2ccc([C@H](N(C)C(=O)C3CCS(=O)(=O)CC3)C(F)(F)F)cc2)cnn1-c1cccnc1` (some centres unmarked) [Compound 1.24], the IC50 in experiment [1] was 100 to 1000 nM; in experiment [2] it was < 100 nM.

With `CC(=O)N1CCC(C(=O)N(C)[C@@H](c2ccc(Nc3cnn(-c4ccccc4)c3C(F)(F)F)cc2)C(F)(F)F)CC1` [Compound 1.25], the IC50 is < 100 nM in experiment [1] and 100 to 1000 nM in experiment [2].

As to `CC(=O)N1CCC(C(=O)N(C)[C@@H](c2ccc(Nc3cnn(-c4ccccc4)c3C(C)C)cc2)C(F)(F)F)CC1` [Compound 1.26], the IC50 in experiment [1] and in experiment [2] was 100 to 1000 nM each time.

As to `CC(=O)N1CCC(C(=O)N(C)[C@@H](c2ccc(Nc3cnn(-c4cccnc4)c3C(F)(F)F)cc2)C(F)(F)F)CC1` [Compound 1.27], the IC50 in experiment [1] and in experiment [2] was < 100 nM each time.

For `CC(=O)N1CCC(C(=O)N(C)[C@@H](c2ccc(Nc3cnn(-c4cccc(C#N)c4)c3C(F)(F)F)cc2)C(F)(F)F)CC1` [Compound 1.28], the IC50 in experiment [1] and in experiment [2] was < 100 nM in each case.

As for `CC(=O)N1CCC(C(=O)N(C)[C@@H](c2ccc(Nc3cnn(-c4ccccn4)c3C(F)(F)F)cc2)C(F)(F)F)CC1` [Compound 1.29], the figures for the IC50 in experiment [1] and in experiment [2] were < 100 nM and 100 to 1000 nM, respectively.

Regarding `CO[C@@H](C)c1c(Nc2ccc([C@H](N(C)C(=O)C3CCN(C(C)=O)CC3)C(F)(F)F)cc2)cnn1-c1ccccc1` [Compound 1.31], the concentration for half-maximal inhibition (IC50) in experiment [1] and in experiment [2] was 100 to 1000 nM throughout.

Turning to `CO[C@@H](C)c1c(Nc2ccc([C@H](N(C)C(=O)C3CCN(C(C)=O)CC3)C(F)(F)F)cc2)cnn1-c1ccccn1` [Compound 1.32], the IC50 in experiment [1] was 100 to 1000 nM; in experiment [2], < 100 nM.

As for `CO[C@@H](C)c1c(Nc2ccc([C@H](N(C)C(=O)C3CCN(C(C)=O)CC3)C(F)(F)F)cc2)cnn1-c1ccncc1` [Compound 1.33], the IC50 in experiment [1] and in experiment [2] was 100 to 1000 nM each time.

`CC(=O)N1CC(C(=O)N(C)[C@@H](c2ccc(Nc3cnn(-c4cccnc4)c3C3CC3)cc2)C(F)(F)F)C1` [Compound 1.41] came in with an IC50 in experiment [1] of 100 to 1000 nM.

These data come from patent US20250326738A1, “MALT1 Modulators and Uses Thereof” (Rarefied Biosciences, Inc., priority 2022, published 2025).
